Assay [1] relates to Aspergillus niger. Description: Antifungal activity against Aspergillus niger after 72 hr by broth microdilution method. Format: functional.
Assay [2] relates to Staphylococcus aureus. Description: Antibacterial activity against Staphylococcus aureus ATCC 11632 after 24 hr by broth microdilution method. It is filed as functional. The following applies: ATCC 11632, 24 h. For orientation: Dilution methods test growth across graded concentrations, often in twofold steps.
Assay [3] relates to Pseudomonas aeruginosa. The assay can be described thus: Antibacterial activity against Pseudomonas aeruginosa ATCC 15499 after 24 hr by broth microdilution method. It is filed as functional. As to conditions: ATCC 15499, 24 h.
Assay [4] relates to Aspergillus niger. The assay can be described thus: Antifungal activity against Aspergillus niger at 0.78 to 50 ug/ml after 72 hr by broth microdilution method. Format: functional.
A short description of assay [5]: Cytotoxicity against Homo sapiens (human) L123 cells after 48 hr by MTT assay. On the set-up: unit not given here. Format: cell-based. A general note: Formazan colour is commonly taken as a measure of viable cells.
In assay [6] the test system is Salmonella typhi. The assay can be described thus: Antibacterial activity against Salmonella enterica subsp. enterica serovar Typhi ATCC 23564 after 24 hr by broth microdilution method. It is filed as functional. As to conditions: ATCC 23564, 24 h.
For assay [7], the system named is Escherichia coli. Description: Antibacterial activity against Escherichia coli ATCC 35218 after 24 hr by broth microdilution method. Format: functional. The following applies: ATCC 35218, 24 h.
The subject of assay [8] is Aspergillus fumigatus. The assay can be described thus: Antifungal activity against Aspergillus fumigatus at 0.78 to 50 ug/ml after 72 hr by broth microdilution method. It is filed as functional.
A further assay deals with Bacillus cereus. The assay can be described thus: Antibacterial activity against Bacillus cereus MTCC 7350 after 24 hr by broth microdilution method. Format: functional. As to conditions: MTCC 7350, 24 h.
Assay [9] concerns Providencia rettgeri. Description: Antibacterial activity against Providencia rettgeri isolated from infected fish after 24 hr by broth microdilution method. It is filed as functional.
For assay [10], the system named is Aspergillus flavus. The assay can be described thus: Antifungal activity against Aspergillus flavus at 0.78 to 50 ug/ml after 72 hr by broth microdilution method. Format: functional.
Assay [11] deals with Salmonella typhi. The assay can be described thus: Antibacterial activity against Salmonella enterica subsp. enterica serovar Typhi ATCC 23564 at 0.78 to 50 ug/ml after 24 hr by broth microdilution method. Format: functional, organism-based.
In assay [12] the test system is Pseudomonas aeruginosa. Description: Antibacterial activity against Pseudomonas aeruginosa ATCC 15499 at 0.78 to 50 ug/ml after 24 hr by broth microdilution method. It is filed as functional, organism-based.
The test system of assay [13] is Aspergillus fumigatus. The assay can be described thus: Antifungal activity against Aspergillus fumigatus after 72 hr by broth microdilution method. It is filed as functional.
The subject of assay [14] is Aspergillus flavus. The assay can be described thus: Antifungal activity against Aspergillus flavus after 72 hr by broth microdilution method. Format: functional.
The subject of assay [15] is Staphylococcus aureus. The assay can be described thus: Antibacterial activity against Staphylococcus aureus ATCC 11632 at 0.78 to 50 ug/ml after 24 hr by broth microdilution method. It is filed as functional, organism-based.
Assay [16] deals with Escherichia coli. Description: Antibacterial activity against Escherichia coli ATCC 35218 at 0.78 to 50 ug/ml after 24 hr by broth microdilution method. It is filed as functional, organism-based.
Assay [17] deals with Providencia rettgeri. Description: Antibacterial activity against Providencia rettgeri isolated from infected fish at 0.78 to 50 ug/ml after 24 hr by broth microdilution method. It is filed as functional, organism-based.

Converted amounts (≈) assume the structure as drawn. The source made the active and inactive calls.

This note sets out measurements from ChEMBL document CHEMBL3045107, “A facile green synthesis and in vitro antimicrobial activity 4H-pyrimido[2,1-b][1,3]benzothiazole derivatives using aluminum trichloride under solvent free conditions” (Med Chem Res, 2012).

One may read the MIC as the smallest concentration in the dilution series that meets the test's criterion for growth inhibition. In the case of `CCOC(=O)C1=C(C)N=C2Sc3ccccc3N2C1c1ccc(O)cc1` (configuration not stated), the MIC with Aspergillus niger [1] turned out to be 6.25 µg/mL (≈ 17.1 µM); against Staphylococcus aureus [2] it was 12.5 µg/mL (≈ 34.1 µM); in the assay on Pseudomonas aeruginosa [3], 12.5 µg/mL (≈ 34.1 µM); against Salmonella typhi [6], 25 µg/mL (≈ 68.2 µM); against Escherichia coli [7] it was 6.25 µg/mL (≈ 17.1 µM); against Bacillus cereus it was 6.25 µg/mL (≈ 17.1 µM). This molecule also came in with an MIC in the assay on Providencia rettgeri [9] of 12.5 µg/mL (≈ 34.1 µM). Also, the “inhibition zone (IZ)” value in the assay with Aspergillus niger [4] worked out at 15 mm; in the assay on Aspergillus fumigatus [8], 12 mm. In addition, the IC50 in [5] is 50. In the assay on Aspergillus flavus [10], the result was inactive.
For the molecule `CCOC(=O)C1=C(C)N=C2Sc3ccccc3N2C1c1ccc(O)c(OC)c1` (configuration not stated), the minimum inhibitory concentration (MIC) in the assay on Aspergillus niger [1] is 6.25 µg/mL (≈ 15.8 µM); with Staphylococcus aureus [2], 25 µg/mL (≈ 63.1 µM); in the assay on Escherichia coli [7], 25 µg/mL (≈ 63.1 µM); against Bacillus cereus, 12.5 µg/mL (≈ 31.5 µM); against Providencia rettgeri [9], 25 µg/mL (≈ 63.1 µM). Further, the “inhibition zone (IZ)” value in the assay on Aspergillus niger [4] was 10 mm. Further, the IC50 in [5] stood at 50. Further, the result with Salmonella typhi [11], in the assay on Aspergillus fumigatus [8], with Pseudomonas aeruginosa [12] and in the assay with Aspergillus flavus [10] was inactive.
Take `CCOC(=O)C1=C(C)N=C2Sc3ccccc3N2C1c1ccc([N+](=O)[O-])cc1` (configuration not stated): the minimal inhibitory concentration (MIC) in the assay on Aspergillus fumigatus [13] is 6.25 µg/mL (≈ 15.8 µM); in the assay with Aspergillus niger [1] it was 12.5 µg/mL (≈ 31.6 µM); with Staphylococcus aureus [2] it was 25 µg/mL (≈ 63.2 µM); in the assay on Pseudomonas aeruginosa [3], 12.5 µg/mL (≈ 31.6 µM); with Salmonella typhi [6], 6.25 µg/mL (≈ 15.8 µM); with Escherichia coli [7], 12.5 µg/mL (≈ 31.6 µM). Besides, the values for the minimal inhibitory concentration (MIC) in the assay with Bacillus cereus and in the assay with Providencia rettgeri [9] were 6.25 µg/mL (≈ 15.8 µM) and 25 µg/mL (≈ 63.2 µM), respectively. For the same molecule, the “inhibition zone (IZ)” value in the assay on Aspergillus niger [4] is given as 17 mm; in the assay with Aspergillus fumigatus [8] it was 15 mm. Besides, in assay [5], the IC50 is > 100. Besides, the outcome in the assay on Aspergillus flavus [10] was inactive.
With `O=C(O)c1cn(C2CC2)c2cc(N3CCNCC3)c(F)cc2c1=O` [CIPROFLOXACIN], the MIC came to 3.25 µg/mL (≈ 9.81 µM) with Staphylococcus aureus [2]; 1.62 µg/mL (≈ 4.89 µM) against Pseudomonas aeruginosa [3]; 3.25 µg/mL (≈ 9.81 µM) against Salmonella typhi [6]; 1.62 µg/mL (≈ 4.89 µM) in the assay on Escherichia coli [7]; 1.62 µg/mL (≈ 4.89 µM) in the assay on Bacillus cereus; 1.62 µg/mL (≈ 4.89 µM) against Providencia rettgeri [9].
For `CCOC(=O)C1=C(C)N=C2Sc3ccccc3N2C1c1ccc(OC)cc1` (configuration not stated), the MIC in the assay on Aspergillus fumigatus [13] is 6.25 µg/mL (≈ 16.4 µM); in the assay with Aspergillus niger [1], 6.25 µg/mL (≈ 16.4 µM); against Staphylococcus aureus [2], 6.25 µg/mL (≈ 16.4 µM); in the assay with Pseudomonas aeruginosa [3], 6.25 µg/mL (≈ 16.4 µM); against Salmonella typhi [6] it was 12.5 µg/mL (≈ 32.9 µM); in the assay on Escherichia coli [7] it was 6.25 µg/mL (≈ 16.4 µM). Moreover, the MIC in the assay with Bacillus cereus and against Providencia rettgeri [9] was 6.25 µg/mL (≈ 16.4 µM) each time. For the same molecule, the “inhibition zone (IZ)” value in the assay with Aspergillus niger [4] amounted to 16 mm; in the assay on Aspergillus fumigatus [8], 20 mm; in the assay with Aspergillus flavus [10], 18 mm. Also, the IC50 in assay [5] is > 100.
With `CCOC(=O)C1=C(C)N=C2Sc3ccccc3N2C1c1ccccc1O` (configuration not stated), the MIC stood at 12.5 µg/mL (≈ 34.1 µM) with Aspergillus flavus [14]; 25 µg/mL (≈ 68.2 µM) in the assay with Pseudomonas aeruginosa [3]; 12.5 µg/mL (≈ 34.1 µM) in the assay on Escherichia coli [7]; 6.25 µg/mL (≈ 17.1 µM) against Bacillus cereus; 12.5 µg/mL (≈ 34.1 µM) with Providencia rettgeri [9]. Further, the outcome in the assay with Aspergillus niger [4], with Staphylococcus aureus [15], in the assay on Salmonella typhi [11] and in the assay with Aspergillus fumigatus [8] was inactive. Besides, the IC50 in [5] is > 100. Also, the “inhibition zone (IZ)” value in the assay with Aspergillus flavus [10] is 11 mm.
Regarding `CCOC(=O)C1=C(C)N=C2Sc3ccccc3N2C1c1c(Cl)cccc1Cl` (configuration not stated), the minimum inhibitory concentration (MIC) against Aspergillus fumigatus [13] came out at 6.25 µg/mL (≈ 14.9 µM); in the assay on Aspergillus flavus [14], 12.5 µg/mL (≈ 29.8 µM); in the assay on Staphylococcus aureus [2] it was 12.5 µg/mL (≈ 29.8 µM); against Pseudomonas aeruginosa [3] it was 12.5 µg/mL (≈ 29.8 µM); in the assay on Salmonella typhi [6], 25 µg/mL (≈ 59.6 µM); in the assay with Escherichia coli [7] it was 6.25 µg/mL (≈ 14.9 µM). For the same molecule, the minimum inhibitory concentration (MIC) in the assay on Bacillus cereus amounted to 6.25 µg/mL (≈ 14.9 µM); with Providencia rettgeri [9], 12.5 µg/mL (≈ 29.8 µM). The result with Aspergillus niger [4], in the assay with Aspergillus fumigatus [8] and in the assay with Aspergillus flavus [10] was inactive. The IC50 in [5] is given as > 100.
As to `CCOC(=O)C1=C(C)N=C2Sc3ccccc3N2C1c1ccc(N(C)C)cc1` (configuration not stated), the MIC in the assay with Pseudomonas aeruginosa [3] came out at 12.5 µg/mL (≈ 31.8 µM); with Salmonella typhi [6], 12.5 µg/mL (≈ 31.8 µM); against Escherichia coli [7] it was 12.5 µg/mL (≈ 31.8 µM); with Bacillus cereus it was 6.25 µg/mL (≈ 15.9 µM); against Providencia rettgeri [9], 12.5 µg/mL (≈ 31.8 µM). In addition, the outcome with Aspergillus niger [4], in the assay on Staphylococcus aureus [15], with Aspergillus fumigatus [8] and in the assay with Aspergillus flavus [10] was inactive. Besides, the IC50 in [5] was > 100.
Take `CCOC(=O)C1=C(C)N=C2Sc3ccccc3N2C1c1ccccc1` (configuration not stated): the MIC in the assay with Aspergillus fumigatus [13] is 6.25 µg/mL (≈ 17.8 µM); with Pseudomonas aeruginosa [3], 25 µg/mL (≈ 71.3 µM); against Salmonella typhi [6], 25 µg/mL (≈ 71.3 µM); with Bacillus cereus, 12.5 µg/mL (≈ 35.7 µM). For the same molecule, the result in the assay with Aspergillus niger [4], in the assay on Staphylococcus aureus [15], with Escherichia coli [16], in the assay on Providencia rettgeri [17] and with Aspergillus flavus [10] was inactive. Further, the IC50 in assay [5] is > 100. Also, the “inhibition zone (IZ)” value in the assay on Aspergillus fumigatus [8] is given as 10 mm.
For `OC(Cn1cncn1)(Cn1cncn1)c1ccc(F)cc1F` [FLUCONAZOLE], the MIC against Aspergillus fumigatus [13], in the assay with Aspergillus niger [1] and with Aspergillus flavus [14] was 1.62 µg/mL (≈ 5.29 µM) throughout. Moreover, the “inhibition zone (IZ)” value amounted to 18 mm in the assay on Aspergillus niger [4], 22 mm in the assay with Aspergillus fumigatus [8] and 25 mm in the assay on Aspergillus flavus [10].
